Here are results for five compounds from patent publication US8580975B2, “Synthesis of macrocyclic cancer chemotherapy agents and methods of use” (Purdue Research Foundation, priority 2008, dated 2013).

pIC50: −log10 of the molar value. Bounds are passed on as bounds.

The subject of assay [1] is P388 murine leukemia cells. Put plainly: cell proliferation assay. The class given is cell-based.
For assay [2], the system named is P388 murine leukemia cells. Conditions: background, natural peloruside A; cited from earlier work.
Where [3] appears, read: Mus musculus, P388 murine leukemia cells.

In assay [1] (setting [3]), `CC[C@H](/C=C(/C)[C@@H]1C[C@@H](OC)C[C@H](O)C(C)(C)[C@@]2(O)O[C@@H](C[C@@H](OC)CC(=O)O1)C[C@@H](O)[C@H]2O)CO` [2-des-Hydroxy-7-des-methoxy-7-hydroxy-Peloruside A] showed a negative-log IC50 (pIC50) of 6.49.

In assay [1] (setting [3]), `CC[C@H](/C=C(/C)[C@@H]1C[C@@H](OC)C[C@H](O)C(C)(C)[C@@]2(O)O[C@@H](C[C@@H](OC)CC(=O)O1)C[C@@H](OC)[C@H]2O)CO` [2-des-Hydroxy-Peloruside A] showed a pIC50 of 6.92.

In turn, `CC[C@H](/C=C(/C)[C@@H]1C[C@@H](OC)C[C@H](O)C(C)(C)C(=O)[C@H](O)[C@H](OC)C[C@@H](O)C[C@@H](OC)CC(=O)O1)CO` [Open Chain Isomer Of 2-Des-Hydroxy-Peloruside A] gave a negative logarithm of the IC50 (pIC50) in assay [1] (Mus musculus, P388) below 5.30.

Compound (+)-Peloruside A [reference compound] showed a pIC50 in assay [1] (P388 murine leukemia cells) of 8.00. Also, the “IC50 value, antitumor activity against P388 murine leukemia cells” value in assay [2] is 0.01 µg/mL.

With epi-C-11 Peloruside A, the pIC50 in assay [1] (P388 murine leukemia cells) was 8.00.

The pIC50 is the IC50 on a negative log10 scale, so that one unit is a factor of ten. Read a high pIC50 as a small IC50.
